Measurements: paper PMC6273627, “Extended N-Arylsulfonylindoles as 5-HT6 Receptor Antagonists: Design, Synthesis & Biological Evaluation” (Molecules, 2016)
“And” between values parts separate entries of the source, which are not always exact repeats. Identical values can stand only once. Like-named read-outs stand apart in the source and are kept apart here.

Key:
5-HT6R = conditions: cited from earlier work
[1] = biological target: T1, cloned human 5-HT6-expressing cell line (HTS111RTA) (Homo sapiens, UniProt P50406); experiment: intracellular calcium mobilization assay (antagonism of 2-Me 5-HT); format: cell-based; conditions: for IC50: antagonism of 2-Me-5-HT (500 nM) intracellular calcium mobilization
T1 construct: host or cells: purchased ready-to-assay cell line

1H-NMR pKa determination = format: physicochemical; conditions: D2O solution; 1H-NMR titration in D2O, 298 K, corrected for H2O; piperazine nitrogen; read-out: pKa (pKa2)
Protocol: All NMR spectra were performed on a Bruker Avance III HD-400 MHz spectrometer at 298 K. The ^1H-NMR experiments were acquired using water suppression in order to suppress the residual HDO signal. Solutions of the 3b and 4g 2 mM in D2O were prepared adding acetone 200 μM as an internal standard. The titrations were carried out progressively in a single NMR sample for each compound. The pH was adjusted with 0.1 mol/L of NaOH and 0.1 mol/L HCl, to cover the pH ranges 4.65–9.11 and 5.58–9.46 for 3b and 4g solutions, respectively. […] The chemical shifts (δ ppm) of the piperazine methylene protons were plotted against the pH for both compounds. The pKa were obtained from the inflection point of the resulting sigmoidal curve, for each compound.
The signal to upfield of the doublet of methylene protons of the piperazine ring was used to plot δ ppm vs. pH. In this case, the pKa^D correspond to inflection point in the resulting sigmoidal curve from the plot δ ppm vs. pH, for each compound (Figure 7B,D). […] The pKa value determined in D2O was corrected for H2O using the Krezel et al. equation [59].
The chemical shift is affected by the chemical and, consequently, the magnetic environment. Therefore, the protonation of basic species such as the nitrogen atoms in piperazine ring induce important changes in the chemical environment in the adjacent proton groups. […]

T1 sequence (P50406 whole entry): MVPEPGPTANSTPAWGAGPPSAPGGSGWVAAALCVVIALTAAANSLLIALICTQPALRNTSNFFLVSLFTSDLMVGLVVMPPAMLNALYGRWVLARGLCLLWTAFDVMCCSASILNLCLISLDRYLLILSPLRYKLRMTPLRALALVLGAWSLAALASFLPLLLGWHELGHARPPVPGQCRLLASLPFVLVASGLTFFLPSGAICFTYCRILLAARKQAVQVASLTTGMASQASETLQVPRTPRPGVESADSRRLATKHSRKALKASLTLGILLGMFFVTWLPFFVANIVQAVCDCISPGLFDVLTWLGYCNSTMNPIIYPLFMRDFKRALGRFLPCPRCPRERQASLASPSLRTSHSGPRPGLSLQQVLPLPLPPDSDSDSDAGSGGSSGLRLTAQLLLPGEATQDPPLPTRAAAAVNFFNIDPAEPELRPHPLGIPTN

In the case of `O=S(=O)(c1ccc(F)cc1)n1cc(C2=CCCNC2)c2ccccc21` [III], the pKi (5-HT6R; Figure 1, known ligands) is given as 8.70.

Compound `Cc1ccc(S(=O)(=O)n2cc(C(=O)CN3CCN(c4ncccn4)CC3)c3ccccc32)cc1` [Compound 3c, 2-(4-(Pyrimidin-2-yl)piperazin-1-yl)-1-(1-tosyl-1H-indol-3-yl)ethanone] has a melting point of 133 to 134 °C.

In the case of `Cc1ccc(S(=O)(=O)n2cc(C(O)CN3CCN(c4ncccn4)CC3)c3ccccc32)cc1` (stereo not drawn) [Compound 4c, 2-(4-(Pyrimidin-2-yl)piperazin-1-yl)-1-(1-tosyl-1H-indol-3-yl)ethanol], the melting point is reported as 81 to 82 °C.

For `COc1ccccc1N1CCNCC1` [2-methoxyphenyl piperazine], the “5-HT6R affinity compared with the compounds here reported” value (5-HT6R) is listed as “substantially lower affinity”.

In the case of `CC(C)c1ccc(S(=O)(=O)n2cc(N3CCN(C)CC3)c3ccccc32)cc1` [IV], the pKi (5-HT6R; Figure 1, known ligands) is listed as 8.47.

`O=S(=O)(c1ccc(F)cc1)n1cc(C(O)CN2CCN(c3ncccn3)CC2)c2ccccc21` (stereo not drawn) [Compound 4e, 1-(1-(4-Fluorophenylsulfonyl)-1H-indol-3-yl)-2-(4-(pyrimidin-2-yl)piperazin-1-yl)ethanol] gave a melting point of 72 to 73 °C.

For `O=C(CBr)c1c[nH]c2ccccc12` [Compound 1], the melting point is given as 160.3 to 161 °C and the pKi (5-HT6R; Table 2 reference value) is given as 8.70 [1].

With `O=C(CN1CCN(c2ncccn2)CC1)c1cn(S(=O)(=O)c2ccc(Cl)cc2)c2ccccc12` [Compound 3d, 1-(1-(4-Chlorophenylsulfonyl)-1H-indol-3-yl)-2-(4-(pyrimidin-2-yl)piperazin-1-yl)ethanone] the melting point was 168 to 169 °C.

For `COc1ccccc1N1CCN(CC(O)c2cn(S(=O)(=O)c3cccc4ccccc34)c3ccccc23)CC1` (stereo not drawn) [Compound 4j, 2-(4-(2-Methoxyphenyl)piperazin-1-yl)-1-(1-(naphthalen-1-ylsulfonyl)-1H-indol-3-yl)ethanol], the “inhibition of 2-Me-5HT-induced Ca2+ mobilization” value [1] was “strong inhibition” and the IC50 [1] was 32 nM.

With `O=C(CN1CCN(c2ncccn2)CC1)c1cn(S(=O)(=O)c2ccc(F)cc2)c2ccccc12` [Compound 3e, 1-(1-(4-Fluorophenylsulfonyl)-1H-indol-3-yl)-2-(4-(pyrimidin-2-yl)piperazin-1-yl)ethanone] the melting point was 145 to 146 °C.

`O=S(=O)(c1cccc2ccccc12)n1cc(C(O)CN2CCN(c3ccccn3)CC2)c2ccccc21` (stereo not drawn) [Compound 4i, 1-(1-(Naphthalen-1-ylsulfonyl)-1H-indol-3-yl)-2-(4-(pyridin-2-yl)piperazin-1-yl)ethanol] gave a melting point of 80 to 81 °C and an IC50 [1] of 399 nM.

In the case of `CN1CCC[C@@H]1Cc1cn(S(=O)(=O)c2ccccc2)c2ccccc12` [V], the pKi (5-HT6R; Figure 1, known ligands) is listed as 9.52.

In the case of `COc1ccccc1N1CCN(CC(=O)c2cn(S(=O)(=O)c3cccc4ccccc34)c3ccccc23)CC1` [Compound 3j, 2-(4-(2-Methoxyphenyl)piperazin-1-yl)-1-(1-(naphthalen-1-ylsulfonyl)-1H-indol-3-yl)ethanone], the melting point is reported as 74 to 75 °C.

In the case of `CN1CCC(c2cn(S(=O)(=O)c3ccc(F)cc3)c3ccccc23)C1` (stereo not drawn) [II], the pKi (5-HT6R; Figure 1, known ligands) is given as 8.70.

For `O=S(=O)(c1cccc2ccccc12)n1cc(C(O)CN2CCN(c3ncccn3)CC2)c2ccccc21` (stereo not drawn) [Compound 4k, 1-(1-(Naphthalen-1-ylsulfonyl)-1H-indol-3-yl)-2-(4-(pyrimidin-2-yl)piperazin-1-yl)ethanol], the melting point was 82 to 83 °C and the IC50 [1] was 688 nM.

In the case of `Cc1ccc(S(=O)(=O)n2cc(C(=O)CN3CCN(c4ccccn4)CC3)c3ccccc32)cc1` [Compound 3a, 2-(4-(Pyridyl-2-yl)piperazin-1-yl)-1-(1-tosyl-1H-indol-3-yl)ethanone], the melting point is reported as 74.9 to 75.7 °C and 75 to 76 °C.

In the case of `O=S(=O)(c1ccc(Cl)cc1)n1cc(C(O)CN2CCN(c3ncccn3)CC2)c2ccccc21` (stereo not drawn) [Compound 4d, 1-(1-(4-Chlorophenylsulfonyl)-1H-indol-3-yl)-2-(4-(pyrimidin-2-yl)piperazin-1-yl)ethanol], the melting point is reported as 76 to 77 °C and 81 to 82 °C.

Compound `COc1ccccc1N1CCN(CC(=O)c2cn(S(=O)(=O)c3ccc(I)cc3)c3ccccc23)CC1` [Compound 3g, 1-(1-(4-Iodophenylsulfonyl)-1H-indol-3-yl)-2-(4-(2-methoxyphenyl)piperazin-1-yl)ethanone] has a melting point of 182 to 183 °C.

For `COc1ccccc1N1CCN(CC(=O)c2cn(S(=O)(=O)c3ccc(C)cc3)c3ccccc23)CC1` [Compound 3b, 2-(4-(2-Methoxyphenyl)piperazin-1-yl)-1-(1-tosyl-1H-indol-3-yl)ethanone], the pKa (1H-NMR pKa determination) was 5.72 and the melting point was 132.3 to 133.6 °C and 132 to 134 °C.

`O=S(=O)(c1ccc(I)cc1)n1cc(C(O)CN2CCN(c3ncccn3)CC2)c2ccccc21` (stereo not drawn) [Compound 4h, 1-(1-(4-Iodophenylsulfonyl)-1H-indol-3-yl)-2-(4-(pyrimidin-2-yl)piperazin-1-yl)ethanol] showed a melting point of 171 to 172 °C and an IC50 [1] of 75 nM.

In the case of `COc1ccccc1N1CCN(CC(O)c2cn(S(=O)(=O)c3ccc(C)cc3)c3ccccc23)CC1` (stereo not drawn) [Compound 4b, 2-(4-(2-Methoxyphenyl)piperazin-1-yl)-1-(1-tosyl-1H-indol-3-yl)ethanol], the melting point is reported as 86.3 to 86.9 °C and 86 to 87 °C.

Compound `O=C(CN1CCN(c2ncccn2)CC1)c1cn(S(=O)(=O)c2ccc(I)cc2)c2ccccc12` [Compound 3h, 1-(1-(4-Iodophenylsulfonyl)-1H-indol-3-yl)-2-(4-(pyrimidin-2-yl)piperazin-1-yl)ethanone] has a melting point of 184 to 185 °C.

For `COc1ccc2c(c1)c(CCN(C)C)cn2S(=O)(=O)c1ccccc1` [I], the pKi (5-HT6R; Figure 1, known ligands) is listed as 8.64.

`O=S(=O)(c1ccc(I)cc1)n1cc(C(O)CN2CCN(c3ccccn3)CC2)c2ccccc21` (stereo not drawn) [Compound 4f, 1-(1-(4-Iodophenylsulfonyl)-1H-indol-3-yl)-2-(4-(pyridin-2-yl)piperazin-1-yl)ethanol] showed a melting point of 157 to 158 °C and an IC50 [1] of 24600 nM.

Compound `O=C(CN1CCN(c2ccccn2)CC1)c1cn(S(=O)(=O)c2cccc3ccccc23)c2ccccc12` [Compound 3i, 1-(1-(Naphthalen-1-ylsulfonyl)-1H-indol-3-yl)-2-(4-(pyridin-2-yl)piperazin-1-yl)ethanone] has a melting point of 76 to 77 °C.

For `CCN(CC)C(=O)[C@@H]1C=C2c3cccc4[nH]cc(c34)C[C@H]2N(C)C1` [LSD], the pKi (5-HT6R; Figure 1, known ligands) is listed as 8.94.

`O=C(CN1CCN(c2ccccn2)CC1)c1cn(S(=O)(=O)c2ccc(I)cc2)c2ccccc12` [Compound 3f, 1-(1-(4-Iodophenylsulfonyl)-1H-indol-3-yl)-2-(4-(pyridin-2-yl)piperazin-1-yl)ethanone] showed a melting point of 179 to 180 °C.

`O=C(CN1CCN(c2ncccn2)CC1)c1cn(S(=O)(=O)c2cccc3ccccc23)c2ccccc12` [Compound 3k, 1-(1-(Naphthalen-1-ylsulfonyl)-1H-indol-3-yl)-2-(4-(pyrimidin-2-yl)piperazin-1-yl)ethanone] showed a melting point of 88 to 89 °C.

In the case of `Cc1ccc(S(=O)(=O)n2cc(C(O)CN3CCN(c4ccccn4)CC3)c3ccccc32)cc1` (stereo not drawn) [Compound 4a, 2-(4-(Pyridin-2-yl)piperazin-1-yl)-1-(1-tosyl-1H-indol-3-yl)ethanol], the melting point is reported as 72.4 to 73.9 °C and 72 to 74 °C and the IC50 [1] is reported as 783 nM.

For `CN1CC(Cl)=C(c2cn(S(=O)(=O)c3ccccc3)c3ccccc23)C1` [VI], the pKi (5-HT6R; Figure 1, known ligands) is given as 8.57.

For `COc1ccccc1N1CCN(CC(O)c2cn(S(=O)(=O)c3ccc(I)cc3)c3ccccc23)CC1` (stereo not drawn) [Compound 4g, 1-(1-(4-Iodophenylsulfonyl)-1H-indol-3-yl)-2-(4-(2-methoxyphenyl)piperazin-1-yl)ethanol], the pKa (1H-NMR pKa determination) was 6.69, the melting point was 109 to 110 °C and the “inhibition of 2-Me-5HT-induced Ca2+ mobilization” value [1] was “strong inhibition”. For the same compound, the IC50 [1] was 204 nM.

With `COc1ccc(S(=O)(=O)n2cc(C(O)CN3CCOCC3)c3ccccc32)cc1` (stereo not drawn) [Compound 4l, 1-(1-(4-Methoxyphenylsulfonyl)-1H-indol-3-yl)-2-morpholinoethanol] the melting point was 149 to 152 °C.

In the case of `Cc1[nH]c2ccc(O)cc2c1CCN` [2-Me 5-HT, reference compound], the pKi (5-HT6R; Figure 1, known ligands) is listed as 7.34 and the EC50 [1] is listed as 119 nM.
